Data reported in patent publication US20250332157A1, “SOLID COMPOSITION OF GLP-1 RECEPTOR AGONIST” (Hangzhou Zhongmeihuadong Pharmaceutical Co., Ltd., priority 2021, published 2025).
Where “and” joins values, the source holds several entries; their conditions need not be identical. Equal values may be shown once. Where a name gives a salt, the structure may show the parent alone.

Assays:
[1] = Forced degradation studies No. 2 of OAD2 2HCl in solution (water, HCl, NaOH, H2O2, UV light), HPLC; format: physicochemical
Method: A stock solution was prepared by dissolving 12.90 mg of OAD2 2 HCl in acetonitrile:water (70:30) to a final volume of 25 mL ([…]). For test groups 1 and 2, the test solution was prepared by mixing 2 mL of the stock solution and 2 mL of water. For test groups 3 and 4, the test solution was prepared by mixing 2 mL of the stock solution and 2 mL of 0.1 N HCl solution. For test groups 5 and 6, the test solution was prepared by mixing 2 mL of the stock solution and 2 mL of 0.1 N NaOH solution. Test groups 1, 3, and 5 (at room temperature) were shielded from light by wrapping with aluminum foil.
A stock solution was prepared by dissolving 5.37 mg of OAD2 2HCl in acetonitrile:water (40:60) to a final volume of 10 mL ([…]). For test group 7, the test solution was prepared by mixing 2 mL of the stock solution and 2 mL of 3% aqueous H2O2. For test group 8, the test solution was prepared by dissolving 5.58 mg to 5.64 mg of OAD2 2HCl in acetonitrile:water (40:60) to a final volume of 25 mL.
The samples in each test group were stored either at room temperature or at 60° C. and observed after the periods indicated in the Table below.
A validated, reverse phase liquid chromatography gradient method was applied to determine assay (content of the active ingredient). The column used was Supelco Ascentis Express RP-Amide, 150×3.0 mm, 2.7μ or equivalent column. Mobile phase A comprises 0.05% TFA in water (v/v). Mobile phase B comprises 0.05% TFA in acetonitrile:methanol (1:2) (v/v). The sample was run using a step gradient from time zero (50% mobile phase A) to 38 minutes (99% mobile phase B). The diluent used to dissolve the standard and sample was a 60:40 mixture of acetonitrile and water. Chromatographic peaks were detected using UV detector at 280 nm. Assay value was obtained by comparing peak responses, expressed as the peak area of a sample formulation of known concentration and the peak area obtained from a standard formulation of known concentration.
The impurities were quantitated using the assay procedure described above. […]

[2] = Forced degradation experiment of active ingredient (acid, alkali, oxidation, high temperature, light, high humidity), HPLC; format: physicochemical; set-up: Impurity B / Impurity E / Impurity F / Impurity G / Impurity I / Largest unknown impurity: unit not given here
Method: Preparation of solutions: • (1) destructive test article solution: 25 mg of OAD2 or a pharmaceutically acceptable salt thereof was placed into a 50 ml measuring flask. Diluent was added to dissolve it and the mixture was diluted to the scale mark, shaken well and used as a test article solution. • (2) test article solution destructed by acid: 25.35 mg of OAD2 or a pharmaceutically acceptable salt thereof was placed into a 50 ml measuring flask. 2 ml of 1 mol/L hydrochloric acid was added, and the mixture was mixed, stood at room temperature for 24 h, adjusted pH to neutral with 1 mol/L sodium hydroxide solution. Diluent was added to dilute the mixture to the scale mark. The mixture was shaken well, and used as the test article solution destructed by acid. • (3) test article solution destructed by alkali: 26.64 mg of OAD2 or a pharmaceutically acceptable salt thereof was placed into a 50 ml measuring flask. 2 ml of 1 mol/L sodium hydroxide solution was added, and the mixture was mixed, stood at room temperature for 24h, adjusted pH to neutral with 1 mol/L hydrochloric acid solution. Diluent was added to dilute the mixture to scale mark. The mixture was shaken well, and used as test article solution destructed by alkali. • (4) acid-base blank: 2 ml of 1 mol/L sodium hydroxide solution was placed into a 50 ml measuring flask. The solution was neutralized with 1 mol/L hydrochloric acid solution, then diluted to the scale mark with a diluent, and shaken well to serve as the acid-base destruction blank solution. • (5) test article solution destructed by oxidation: 28.10 mg of OAD2 or a pharmaceutically acceptable salt thereof was placed into a 50 ml measuring flask. 2 ml of 15% hydrogen peroxide was added, stood at room temperature for 9 h. The mixture was diluted to the scale mark with a diluent. […] It was dissolved and diluted to the scale mark with a diluent, shaken well, and used as the test article solution destructed by high temperature. • (8) test article solution destructed by light exposure: 25.12 mg of OAD2 or pharmaceutically acceptable salt thereof was accurately weighted, placed into a 50 ml measuring flask, stood under irradiation of light 4500 Lx+−500 Lx for 6 days. It was dissolved and diluted to the scale mark with a diluent, shaken well, and used as the test article solution destructed by light exposure. • (9) test article solution destructed by high-humidity destruction: 25.71 mg of OAD2 or a pharmaceutically acceptable salt thereof was placed into a 50 ml measuring flask, then the measuring flask was placed into a drier with KNO3 saturated solution at the bottom (humidity was 92.5%), stood for 5 days. It was dissolved and diluted to the scale mark with a diluent, shaken well, and used as the test article solution destructed by high-humidity destruction. • (10) blank solution that is not destructed, not destructed by high-temperature, not destructed by high-humidity and not destructed by light exposure: a diluent.
The measuring method: 2 μl of each of the above solutions (1)-(10) was injected into a liquid chromatograph, and the chromatograms were recorded. Among them, the results of the forced degradation experiment are shown in Table 13.1, and the results of the changes of various impurity components after the forced degradation are shown in Table 13.2. […]

[3] = test group 7: 1.5% solution of H2O2, RT, after 90 minutes

For `CC[C@@H](c1ccccc1)N1Cc2cc3c(cc2C[C@H]1C(=O)N[C@@H](Cc1ccc(-c2ccnc(C)c2C)cc1)C(=O)O)OC[C@H](c1ccc(OCc2ccc(Cl)c(Cl)c2)cc1)O3` [OAD2 dihydrochloride, (S)-2-(3S,8S)-3-(4-(3,4-dichlorobenzyloxy)phenyl-7-((S)-1-phenylpropyl)-2,3,6,7,8,9-hexahydro-[1,4]-dioxino[2,3-g]isoquinolin-8-formylamino)-3-(4-(2,3-dimethylpyridin-4-yl)phenyl)propanoic acid dihydrochloride], the “growth of impurities by HPLC” value [1, 3] was “significant increase in impurities”, the “loss of active ingredient” value [1, 3] was 10% and the “growth of impurities or loss of active ingredient by HPLC” value ([1]; test groups 1-6 and 8: water, 0.05N HCl, 0.05N NaOH at RT or 60° C., 1 and 2 days, UV light (365 nm) RT 24 hours) was “no substantial growth in any impurities or loss of active ingredient”.
For `CC[C@@H](c1ccccc1)N1Cc2cc3c(cc2C[C@H]1C(=O)N[C@@H](Cc1ccc(-c2ccnc(C)c2C)cc1)C(=O)O)OC[C@H](c1ccc(OCc2ccc(Cl)c(Cl)c2)cc1)O3` [OAD2, (S)-2-(3S,8S)-3-(4-(3,4-dichlorobenzyloxy)phenyl-7-((S)-1-phenylpropyl)-2,3,6,7,8,9-hexahydro-[1,4]-dioxino[2,3-g]isoquinolin-8-ylformylamino)-3-(4-(2,3-dimethylpyridin-4-yl)phenyl)propionic acid], the Impurities C + D ([2]; Acid destruction) was 0.03%, the “Impurity A” value ([2]; Acid destruction) was 0.13 and the “Impurity B” value ([2]; Acid destruction) was “Undetected”. The “Impurity E” value ([2]; Acid destruction) was “Undetected”, the “Impurity F” value ([2]; Acid destruction) was 0.34 and the “Impurity G” value ([2]; Acid destruction) was 0.05. For the same compound, the “Impurity H” value ([2]; Acid destruction) was “Undetected”, the “Impurity I” value ([2]; Acid destruction) was “Undetected” and the Largest unknown impurity ([2]; Acid destruction) was 0.07. For the same compound, the “Number of impurities (≥0.05%)” value ([2]; Acid destruction) was 4, the “Purity of main peak” value ([2]; Acid destruction) was 99.4% and the Total Impurities ([2]; Acid destruction) was 0.65%. The Impurities C + D ([2]; Alkali destruction) was 0.05%, the “Impurity A” value ([2]; Alkali destruction) was 0.13 and the “Impurity B” value ([2]; Alkali destruction) was 0.02. The “Impurity E” value ([2]; Alkali destruction) was “Undetected”, the “Impurity F” value ([2]; Alkali destruction) was 0.36 and the “Impurity G” value ([2]; Alkali destruction) was 0.07. The “Impurity H” value ([2]; Alkali destruction) was “Undetected”, the “Impurity I” value ([2]; Alkali destruction) was “Undetected” and the Largest unknown impurity ([2]; Alkali destruction) was 0.07. For the same compound, the “Number of impurities (≥0.05%)” value ([2]; Alkali destruction) was 4, the “Purity of main peak” value ([2]; Alkali destruction) was 99.3% and the Total Impurities ([2]; Alkali destruction) was 0.73%. The Impurities C + D ([2]; High humidity destruction) was 0.04%, the “Impurity A” value ([2]; High humidity destruction) was 0.12 and the “Impurity B” value ([2]; High humidity destruction) was “Undetected”. The “Impurity E” value ([2]; High humidity destruction) was 0.01, the “Impurity F” value ([2]; High humidity destruction) was 0.31 and the “Impurity G” value ([2]; High humidity destruction) was 0.04. The “Impurity H” value ([2]; High humidity destruction) was “Undetected”, the “Impurity I” value ([2]; High humidity destruction) was “Undetected” and the Largest unknown impurity ([2]; High humidity destruction) was 0.08. The “Number of impurities (≥0.05%)” value ([2]; High humidity destruction) was 3, the “Purity of main peak” value ([2]; High humidity destruction) was 99.3% and the Total Impurities ([2]; High humidity destruction) was 0.68%. For the same compound, the Impurities C + D ([2]; High temperature destruction) was 0.08%, the “Impurity A” value ([2]; High temperature destruction) was 1.76 and the “Impurity B” value ([2]; High temperature destruction) was 0.97. The “Impurity E” value ([2]; High temperature destruction) was 0.08, the “Impurity F” value ([2]; High temperature destruction) was 0.26 and the “Impurity G” value ([2]; High temperature destruction) was 0.09. The “Impurity H” value ([2]; High temperature destruction) was 0.02, the “Impurity I” value ([2]; High temperature destruction) was “Undetected” and the Largest unknown impurity ([2]; High temperature destruction) was 2.36. The “Number of impurities (≥0.05%)” value ([2]; High temperature destruction) was 25, the “Purity of main peak” value ([2]; High temperature destruction) was 92.2% and the Total Impurities ([2]; High temperature destruction) was 7.8%. The Impurities C + D ([2]; Light exposure destruction) was 0.01%, the “Impurity A” value ([2]; Light exposure destruction) was 1.13 and the “Impurity B” value ([2]; Light exposure destruction) was 0.26. For the same compound, the “Impurity E” value ([2]; Light exposure destruction) was 0.12, the “Impurity F” value ([2]; Light exposure destruction) was 0.22 and the “Impurity G” value ([2]; Light exposure destruction) was 0.03. The “Impurity H” value ([2]; Light exposure destruction) was 0.38, the “Impurity I” value ([2]; Light exposure destruction) was “Undetected” and the Largest unknown impurity ([2]; Light exposure destruction) was 0.78. The “Number of impurities (≥0.05%)” value ([2]; Light exposure destruction) was 24, the “Purity of main peak” value ([2]; Light exposure destruction) was 93.1% and the Total Impurities ([2]; Light exposure destruction) was 6.9%. For the same compound, the Impurities C + D ([2]; No destruction) was 0.05%, the “Impurity A” value ([2]; No destruction) was 0.12 and the “Impurity B” value ([2]; No destruction) was “Undetected”. For the same compound, the “Impurity E” value ([2]; No destruction) was “Undetected”, the “Impurity F” value ([2]; No destruction) was 0.31 and the “Impurity G” value ([2]; No destruction) was 0.03. The “Impurity H” value ([2]; No destruction) was “Undetected”, the “Impurity I” value ([2]; No destruction) was “Undetected” and the Largest unknown impurity ([2]; No destruction) was 0.07. For the same compound, the “Number of impurities (≥0.05%)” value ([2]; No destruction) was 3, the “Purity of main peak” value ([2]; No destruction) was 99.4% and the Total Impurities ([2]; No destruction) was 0.6%. For the same compound, the Impurities C + D ([2]; Oxidative destruction) was 0.18%, the “Impurity A” value ([2]; Oxidative destruction) was 0.36 and the “Impurity B” value ([2]; Oxidative destruction) was 2.77. The “Impurity E” value ([2]; Oxidative destruction) was “Undetected”, the “Impurity F” value ([2]; Oxidative destruction) was 0.26 and the “Impurity G” value ([2]; Oxidative destruction) was 0.20. For the same compound, the “Impurity H” value ([2]; Oxidative destruction) was “Undetected”, the “Impurity I” value ([2]; Oxidative destruction) was 0.02 and the Largest unknown impurity ([2]; Oxidative destruction) was 2.56. For the same compound, the “Number of impurities (≥0.05%)” value ([2]; Oxidative destruction) was 18, the “Purity of main peak” value ([2]; Oxidative destruction) was 91.6% and 91.8% and the Total Impurities ([2]; Oxidative destruction) was 8.2%.
